“Also recorded” adds a separate entry of the source. Where a name gives a salt, the structure may show the parent alone. Read-outs that look alike come from different tables or passages of the source. One block for each compound: values may come before it.
Experiments:
[1] = target: T1, PD-L1 (Homo sapiens, UniProt Q9NZQ7); parameters: method as in PMID 17985865; details: by means of NMR, HTRF, and cellular assays; cited from earlier work
T1 construct: The PD-L1 protein (18–134) was expressed in the Escherichia coli BL21 (DE3); made in house; host or cells: Escherichia coli BL21 (DE3)
T1 sequence (Q9NZQ7 18-134): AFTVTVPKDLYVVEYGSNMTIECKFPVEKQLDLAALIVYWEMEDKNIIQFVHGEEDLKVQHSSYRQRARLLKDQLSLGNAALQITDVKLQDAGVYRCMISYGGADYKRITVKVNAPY

[2] = test system: murine PD-L1; parameters: method as in PMID 17985865; details: by means of NMR, HTRF, and cellular assays; cited from earlier work
[3] = test system: H358 (lung adenocarcinoma) PD-L1^+/– tumor tissue sections; assay: Autoradiography with H358 PD-L1+/- tumor tissue sections; format: binding, human; details: PD-L1+ vs counterpart H358 tumor sections
Method: (§1) Formalin-fixed paraffin-embedded xenograft tumors (ES2 PD-L1^+/– and H358 PD-L1^+/–) were cut into 4 μm slices and placed on the glass slides. Before each immunohistochemistry and autoradiography experiment, tissue slides were deparaffinized by oven incubation (min 1 h at 60 °C) and xylene washes, then rehydrated through graded alcohol and distilled water. Additionally, heat-induced antigen retrieval with 10 mM citrate buffer pH = 6.0 was performed (15 min 400 W). Snap-frozen human tonsil tissue was a gift from the Pathology Department (UMCG). Before each experiment, they were incubated in cold acetone for 10 min.
(§2) For autoradiography, antigen retrieval and acetone wash were followed by 30 min of incubation with a freshly formulated tracer at a concentration of 0.2 MBq/mL. After washing twice with cold PBS and once with water, slides were left to dry and exposed to phosphorus plates. The image was recorded on GE Amersham Typhoon Biomolecular Imager and analyzed with ImageQuant TL 1D software (both GE Healthcare Life Science, USA).

[4] = Experimental lipophilicity of 18F tracers; format: physicochemical; details: for lipophilicity (in words) / logP: 18F tracer; for logP / logD: triplicate; for logP: read-out: experimental log P; for logD: pH 7.4, 18F tracer, read-out: experimental log D7.4
[5] = In vitro stability in human serum; format: in vitro ADME; details: for stability in serum after 4 h: radiochemical purity by TLC, triplicate; for stability in serum (4h): supplementary csv, unit not given
Method: (§3) In vitro stability of [^18F]4a and [^18F]9a was evaluated in Tween-80 or PBS (original diluent) and serum. After purification, samples of tracers were mixed with equal volumes of the formulated tracer and solution in which stability was evaluated (100 μL tracer solution with 100 μL Tween-80/PBS) and measured every 30 min for a 4 h period. The radiochemical purity (RCP) of labeled products was measured using thin-layer chromatography (TLC) (silica TLC plates on aluminum, MerckMilipore, USA). The TLCs were developed with appropriate MeOH/DCM eluent system; 10% MeOH/DCM + NH3 for [^18F]4a and 10% MeOH/DCM for [^18F]9a. The distribution of the radioactivity among the TLC plate was measured on GE Amersham Typhoon Scanner using phosphorus plates and ImageQuant TL 1D software for data processing (both GE Healthcare Life Science, USA). The experiment was performed in triplicate.

[6] = In vitro stability in formulation solution; format: physicochemical; details: for stability in formulation solution after 4 h: radiochemical purity by TLC, triplicate; for stability in formulation solution (4h): supplementary csv, unit not given
Method: as §3

[7] = target: PD-L1; details: PD-L1 nanobody, ca. 15 kDa; cited from earlier work
[8] = target: T1, PD-L1; assay: Microscale thermophoresis (MST) affinity assay; format: binding
Method: The PD-L1 protein (18–134) was expressed in the Escherichia coli BL21 (DE3) and purified as described previously (Zak et al., 2016).[8] Protein expression was induced with 1 mM isopropyl β-D-1-thiogalactopyranosid (IPTG) at OD600 of 0.8 and the cells were cultured overnight at 37 °C. Afterward protein was refolded by drop-wise dilution into solution containing 0.1 M Tris pH 8.0, 1 M L-arginine hydrochloride, 0.25 mM oxidized glutathione, and 0.25 mM reduced glutathione. After refolding, protein was dialyzed 3 times against buffer containing 10 mM Tris pH 8.0 and 20 mM NaCl. Finally, PD-L1 was purified by SEC (size-exclusion chromatography) on HiLoad 26/600 Superdex 75 column (GE Healthcare) equilibrated with PBS pH 7.4.
PD-L1 was expressed as for NMR experiment. It was diluted to 10 μM and labelled with Protein Labeling Kit RED-NHS 2nd Generation from Nanotemper according to the manufacturer’s guidelines. The degree of labelling for PD-L1 was 0.74, which is with agreement with the protocol. Labelled PD-L1 at 100 nM concentration was then mixed with independent series of 4a and 9a compound dilution series (n = 4) and incubated for 30 min at RT. Next, samples were transferred to dedicated 384-well plate and measured on Diantus equipped with pico detector using auto-excitation and 5 s pulse (Nanotemper) for the affinity measurements. The results were exported, averaged, and fitted in Mathematica 12 using following equations: [drawing 1] where: FB—fraction bound, [A]—concentration of unlabeled titrated partner, [B]—concentration of fluorescent labeled partner that is fixed, [AB]—concentration of bound complex of A and B, Kd—equilibrium dissociation constant.

[9] = target: T2, PD-1/PD-L1 complex (Homo sapiens, UniProt Q9NZQ7); assay: HTRF PD-1/PD-L1 assay (Cisbio Human PD1/PD-L1 biochemical binding assay); details: disruption of the PD-1/PD-L1 complex; two independent dilution series
T2 construct: purchased Cisbio Bioassays
T2 sequence (Q9NZQ7 19-238 limits assumed, one chain of several): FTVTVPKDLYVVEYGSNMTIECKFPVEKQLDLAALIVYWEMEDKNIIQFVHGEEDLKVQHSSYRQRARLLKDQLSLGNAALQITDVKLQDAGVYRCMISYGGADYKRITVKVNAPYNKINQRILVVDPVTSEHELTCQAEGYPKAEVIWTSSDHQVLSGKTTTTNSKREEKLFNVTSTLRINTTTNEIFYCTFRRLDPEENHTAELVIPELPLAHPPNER
Method: Presence of inhibitors (small molecules, proteins, and so forth) that disrupt the binding decreases the resulting signal allowing the assessment of the inhibitory activity of tested inhibitors via IC50 (the half maximal inhibitory concentration).
The HTRF assay was performed using the certified Cis-Bio assay kit at 20 μL final volume using their standard protocol as described by Musielak et al.[34] Measurements were performed on individual dilution series to determine the half maximal inhibitory concentration (IC50) of tested compounds. After mixing all components according to the Cis-Bio protocol, the plate was incubated for 2 h at RT. […] For the compounds with IC50 values that were too high due to, e.g., solubility issues, a “dissociation value” at the concentration of 50 μM is presented for the sake of comparability to other inhibitors.

[10] = target: T3, PD-1/PD-L1 (Homo sapiens, UniProt Q9NZQ7); assay: Promega PD-1/PD-L1 immune checkpoint blockade assay (Jurkat reporter T cells + aAPCs); format: cell-based; details: Jurkat reporter T cells cocultured with aAPCs; an estimation because of cytotoxicity at higher concentrations
T3 construct: host or cells: CHO-K1 aAPCs (PD-L1) and Jurkat effector cells (PD-1)
T3 sequence (Q9NZQ7 19-290): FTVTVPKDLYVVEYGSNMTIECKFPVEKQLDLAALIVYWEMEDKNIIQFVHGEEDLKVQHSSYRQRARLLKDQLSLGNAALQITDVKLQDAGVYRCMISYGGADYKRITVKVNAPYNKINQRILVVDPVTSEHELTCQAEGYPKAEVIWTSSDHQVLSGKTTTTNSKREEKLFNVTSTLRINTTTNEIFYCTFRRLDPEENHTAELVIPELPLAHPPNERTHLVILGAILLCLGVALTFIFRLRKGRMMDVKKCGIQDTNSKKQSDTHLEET
Method: Additionally, aAPCs and ECs were propagated in a constant presence of hygromycin B (50 μg/mL) and G418 (250 μg/mL) to provide a stable expression of the introduced genetic constructs.
The aAPCs were seeded in white flat bottom 96-well plates at the density of 10 000 cells/well in the culture medium 24 h before the assay and grown overnight in a 5% CO2 37 °C incubator. On the day of the experiment, serial dilutions of tested compounds were prepared first in DMSO and then formulated in RPMI 1640-containing 1% FBS to keep the constant DMSO concentration of 0.1% (v/v). As a negative control, DMSO was used in assay buffer at the concentration of 0.1% (v/v). As a positive control, a serial dilution of durvalumab (an anti-PD-L1 antibody) in assay buffer was used. Meanwhile, the medium of the aAPCs cells was removed, and the compounds’ dilutions were added to the plate (40 μL/well). […] The cell suspension was distributed over the inner 60 wells of the assay plate (20 000 cells/well, 40 μL). The plates were incubated for 6 h in a 5% CO2 incubator at 37 °C. Once the assay time was over, the plate was taken out of the incubator to equilibrate to room temperature. Before measurements, a 75 μL per well of Bio-Glo luciferase substrate was added to the inner 60 wells of the plate. […] The measurement was done on a Spark microplate reader (Tecan), using the standard settings for luminescence reading.

[11] = test system: ES2 (ovarian carcinoma) PD-L1^+/– tumor tissue sections; assay: Autoradiography with ES2 PD-L1+/- tumor tissue sections; format: binding, human
Method: as §1, §2

[12] = target: T1, PD-L1; assay: NMR binding assay (1H and 1H-15N HMQC); details: molar ratio 1:1
From the text: To investigate if our synthesized analogs are capable of disrupting PD-1/PD-L1 binding, we performed our previously described nuclear magnetic resonance (NMR) assay.[16] […] The PD-L1 dimerization causes peaks of the ^1H aliphatic part PD-L1 spectrum to flatten (peak at −0.4 ppm) or disappear in the case of peaks from ^1H–^15N HMQC spectrum. Dimerization of PD-L1, in turn, prevents its binding to the PD-1.
For NMR measurements, the buffer was exchanged by gel filtration to PBS pH 7.4. 10% (v/v) of D2O was added to the samples to provide the lock signal. All spectra were recorded at 300 K using a Bruker Avance III 600 MHz spectrometer equipped with the nitrogen cryo-probe head.
Determination of binding of compounds to PD-L1 was carried out with the ^1H NMR. […] The molecular weight of each complex was estimated from relaxation time analysis, which can only be explained by the compound-induced PD-L1 dimerization. No significant changes were observed upon the addition of the PD-1 with the tested compounds.

[13] = MST, labelled PD-L1 100 nM, n = 4, read-out: kD to hPD-L1
[14] = supplementary csv, unit inferred, read-out: MST Kd

logP [4]: 5.2
logD [4]: 6.5
Kd [8, 13]: ~8 nM
Kd [8, 14]: 8.36 nM
IC50 [9]: 2.01 nM
stability in serum (4h) [5]: 88.7
stability in formulation solution (4h) [6]: 97.3
Compound: Cc1c(COc2cc(OCc3cccc(C#N)c3)c(CN3C[C@@H](F)C[C@@H]3C(=O)O)cc2Cl)cccc1-c1ccc2c(c1)OCCO2 [9a, (2R,4S)-1-(5-Chloro-2-((3-cyanobenzyl)oxy)-4-((3-(2,3-dihydrobenzo[b][1,4]dioxin-6-yl)-2-methylbenzyl)oxy)benzyl)-4-fluoropyrrolidine-2-carboxylic Acid]
EC50 [10]: 880 nM

lipophilicity (in words) [4]: moderate lipophilicity
logP [4]: 3.6 ± 0.4
logD [4]: 3.9 ± 0.9
stability in serum after 4 h [5]: 93.9 ± 0.5%
stability in human serum, minimal value [5]: 93%
stability in formulation solution after 4 h [6]: 97.5 ± 0.5%
Compound: N#Cc1c(-c2ccc([18F])cc2)csc1OCc1ccc(CN)cc1 [[^18F]4a]
higher uptake in PD-L1+ H358 tumors [3]: 40–55%
background uptake ([11]; compared with [^18F]9a): lower background uptake than [^18F]9a
discrimination between wild-type and knock-out ES2 slides ([11]; paraffin-embedded sections): failed to discriminate between wild-type and knock-out; also recorded: unable to bind specifically

effect on PD-L1 in 1H NMR and 1H-15N HMQC spectra [12]: induces dimerization of PD-L1
Compound: Cc1c(COc2cc(OCc3cccc(C#N)c3)c(CN3CC(O)C[C@@H]3C(=O)O)cc2Cl)cccc1-c1ccc2c(c1)OCCO2 (stereo in doubt) [9b, (2R,4S)-1-(5-Chloro-2-((3-cyanobenzyl)oxy)-4-((3-(2,3-dihydrobenzo[b][1,4]dioxin-6-yl)-2-methylbenzyl)oxy)benzyl)-4-hydroxypyrrolidine-2-carboxylic Acid, reference compound]

effect on PD-L1 in 1H NMR and 1H-15N HMQC spectra [12]: induces dimerization of PD-L1
logP [4]: 3.6
logD [4]: 3.9
Kd [8, 13]: ~27 nM
Kd [8, 14]: 26.9 nM
IC50 [9]: 4.97 nM
stability in serum (4h) [5]: 93.9
stability in formulation solution (4h) [6]: 97.5
Compound: N#Cc1c(-c2ccc(F)cc2)csc1OCc1ccc(CN)cc1 [4a, 2-((4-(Aminomethyl)benzyl)oxy)-4-(4-fluorophenyl)thiophene-3-carbonitrile Hydrochloride]
EC50 [10]: 2700 nM

More lines, now with the values behind:

Compound: C[C@@H](O)[C@H](NC(=O)N[C@@H](CC(N)=O)c1nc([C@@H](N)CO)no1)C(=O)O [CA-170]
direct binding to human PD-L1 [1]: not a direct binder
direct binding to murine PD-L1 [2]: not a direct binder

Compound: Cc1c(COc2cc(OCc3cccc(C#N)c3)c(CN3C[C@@H]([18F])C[C@@H]3C(=O)O)cc2Cl)cccc1-c1ccc2c(c1)OCCO2 [[^18F]9a]
higher uptake in PD-L1+ H358 tumors [3]: 40–55%
lipophilicity (in words) [4]: high lipophilicity
logP [4]: 5.2 ± 0.6
logD [4]: 6.5 ± 0.2
stability in serum after 4 h [5]: 88.7 ± 5.7%
stability in human serum, minimal value [5]: 82%
stability in formulation solution after 4 h [6]: 97.3 ± 1.1%

Compound: KN035: PD-L1 nanobody, ca. 15 kDa
pKd [7]: 8.5

— paper PMC10388299, “Design, Synthesis, and Biological Evaluation of 2-Hydroxy-4-phenylthiophene-3-carbonitrile as PD-L1 Antagonist and Its Comparison to Available Small Molecular PD-L1 Inhibitors” (Journal of Medicinal Chemistry, 2023)
